In patent publication US20160136295A1, “BIOMARKERS FOR TREATMENT WITH ANTI-TUBULIN CHEMOTHERAPEUTIC COMPOUNDS” (GENENTECH, INC., priority 2012, published 2016):
Peptide text beside a SMILES is read from it. * marks the point of attachment. Cbz = O=C(OCc1ccccc1)*

Legend:
Mcl-1 = Mcl-1 protein level / degradation in mitotic arrest (western blot of synchronized cells); assay type: cell-based, human
Protocol: (§1) The viability of cancer cell lines, and MEFs in which genes encoding IAPs had been knocked out, was analysed by using the CellTiter-Glo Luminescent Cell Viability Assay® (Promega). Cells were treated in triplicate with anti-tubulin agents for the indicated times, using dimethylsulphoxide treatment as a control. The viability of BCL2-family-member-null MEFs was analysed by propidium iodide staining, as described previously (Chen, L. et al. (2005) Molecular cell 17:393-403), after treatment with anti-tubulin agents for 48 h. Cell synchronization was achieved by culture either in serum-free medium for 12-16 h or in medium containing 2 mM thymidine for 18-24 h, release from the thymidine block with three washes in PBS, followed by culture for 8-12 h in complete growth media (compositions are described in the Supplementary Information). Cells then underwent a second thymidine block for 16-20 h, three further washes in PBS and release into complete medium containing the indicated reagents. To block MCL1 degradation, […] MG132 was added as cells entered mitotic arrest, as assessed by visual inspection. See the Examples for full methods.
Western blotting was performed essentially as described (Wertz, I. E. et al. (2004) Science (New York, N.Y 303:1371-1374). In brief, cells were lysed in corrected FLAG elution buffer (CFEB) (19.17 mM Tris (pH 7.5), 916.7 μM MgCl2, 92.5 mM NaCl and 0.1% Triton X-100) with protease and phosphatase inhibitors; in some cases 6 M urea was added. Cleared lysates were quantitated and equal amounts of proteins were reduced, alkylated, separated by SDS-PAGE, and transferred onto PVDF membranes (Invitrogen) following standard procedures. Western blotting was performed as recommended by the respective antibody manufacturers. Patient tissue and xenograft samples were lysed in 5× volume of CFEB with protease inhibitors using Fast prep 24 (MP Biologicals). Tissue lysates were cleared and 40 μg total protein was prepared for western blotting analysis as described above. Immunoprecipitations were performed with the indicated antibodies as described (Willis, S. N. et al. (2007) Science (New York, N.Y 315:856-859; Wertz, I. E. et al. (2004) Science (New York, N.Y 303:1371-1374). PP2A activity was performed on PP2A or Mcl-1 immunoprecipitates as recommended by the manufacturer (Upstate)

[1] = tested on: murine embryonic fibroblasts (MEFs); test: Viability of BCL2-family-member-null MEFs by propidium iodide staining after anti-tubulin agents; assay type: cell-based; conditions: for killing (cell viability): treated 48 hours; for sensitivity to killing: 48 hours
Protocol: as §1

[2] = tested on: FBW7-WT, FBW7−/− or FBW7 mutant colon cancer cell lines (HCT116, DLD1); test: Cell viability of colon cancer cell lines by FBW7 status (CellTiter-Glo); assay type: cell-based, human; conditions: 48 hours
Protocol: as §1
were synthesized by Ambion and experiments were performed as described (Huang, H. C., et al (2009) Cancer cell 16:347-358). For viability experiments using stable cell lines transfected with doxycycline-inducible shRNAs to LacZ or Mcl-1 ORF, cells were plated in 10 cm2 plates with 0.2 μg/mL doxycycline for two days. On the third day, cells were plated in to 96-well plates at 5×10^3 per well for viability assays as described above. […] For western blot analysis, cells were harvested at indicated time points and processed as described above.

HCT116 cells = test: Live time-lapse imaging of mitotic fate; assay type: cell-based, human
Protocol: HCT116 parental or FBW7−/− cells expressing shLacZ or shMcl-1 were plated at 15,000-30,000 cells per well in 96-well μ-plates (ibidi GmbH) and infected with GFP-H2B baculovirus (Invitrogen) 24 hours prior to adding paclitaxel or vincristine. Cells were imaged live at 37° C. with 5% CO2 using a Nikon TiE® microscope with a Cool Snap® CCD camera (Roper Scientific) and a Plan Apo VC 20× 0.75 NA objective. Three images with 6 μm z-steps were acquired for each position every 10 minutes for 43 hours. Mitotic fate was analyzed manually using NIS-Elements software (Nikon) and numerical data was complied and statistically analyzed using Excel (Microsoft). Fifty mitotic cells were analyzed for each condition and p-values were calculated for the change in the number of cells that exited mitosis or entered apoptosis using the one-tailed Fisher's exact test.

Mcl-1 S121 = test: In vitro kinase reactions: percent phosphorylation of full-length recombinant Mcl-1 at S121; assay type: biochemical, human; conditions: for Percent phosphorylation S121, AVE: average of INJ1 and INJ2; for Percent phosphorylation S121, INJ1: sample injection 1; for Percent phosphorylation S121, INJ2: sample injection 2
Protocol: (§2) To determine the suitability of residues in Mcl-1 as kinase substrates, 10 μM of Mcl-1 was incubated with selected kinase at enzyme concentrations between 25 and 100 nM. For these reactions the Mcl-1 was dialyzed into 20 mM Phosphate, 50 mM Tris pH 7.5 150 mM NaCl, 5 mM DTT and 0.5% CHAPS. The protein solution was further supplemented with MgCl2 to 10 mM and ATP to 1 mM prior to addition of kinase. Purified recombinant kinases were purchased from Invitrogen Co. (Carlsbad, Calif.).
(§3) 10 μl of each of the Mcl-1 kinase reactions (100 pmol) were loaded onto a 4-12% Bis-Tris gel for separation by SDS-PAGE after reduction. Mcl-1 bands were excised from the gel, dehydrated (50% acetonitrile in 50 mM ammonium bicarbonate then 100% acetonitrile washes), and incubated with 0.2 μg trypsin overnight at 37° C.
(§4) Samples were injected in duplicate via autosampler onto a nanoAcquity® UPLC (Waters, Milford, Mass.) and analyzed on-line via nanospray ionization into an LTQ-Orbitrap® mass spectrometer at a concentration of 300 fmol synthetic peptide mix per injection. Areas were integrated for the isotopic and kinase phosphorylated peptides, and compared to their non-phosphorylated peptide counterparts to obtain percent phosphorylation values.

Mcl-1 S159/T163 = test: In vitro kinase reactions: percent phosphorylation of full-length recombinant Mcl-1 at S159+T163; assay type: biochemical, human; conditions: for Percent phosphorylation S159/T163, AVE: average; for Percent phosphorylation S159/T163, INJ1: sample injection 1; for Percent phosphorylation S159/T163, INJ2: sample injection 2
Protocol: as §2, §3, §4

Mcl-1 T163 = test: In vitro kinase reactions: percent phosphorylation of full-length recombinant Mcl-1 at T163; assay type: biochemical, human; conditions: single kinase reactions; for Percent phosphorylation T163, AVE: average of INJ1 and INJ2; for Percent phosphorylation T163, INJ1: sample injection 1; for Percent phosphorylation T163, INJ2: sample injection 2
Protocol: as §2, §3, §4

Mcl-1 S159 = test: In vitro kinase reactions: percent phosphorylation of full-length recombinant Mcl-1 at S159 alone; assay type: biochemical, human; conditions: % phos on S159 alone; for Percent phosphorylation S159, AVE: average; for Percent phosphorylation S159, INJ1: sample injection 1; for Percent phosphorylation S159, INJ2: sample injection 2
Protocol: as §2, §3
as §4, with “values. For phosphorylation analysis of T92, no synthetic peptide was available so peak areas of the phosphorylated peptide covering residues 76-95 was divided by the total occurrence of peptide 76-95 in both phosphorylated and non-phosphorylated forms.” for “values.”

Mcl-1 T92 = test: In vitro kinase reactions: percent phosphorylation of full-length recombinant Mcl-1 at T92; assay type: biochemical, human; conditions: single kinase reactions, peak areas of 0 and 1P, triple charged state; for Percent phosphorylation T92, AVE: average; for Percent phosphorylation T92, INJ1: sample injection 1; for Percent phosphorylation T92, INJ2: sample injection 2
Protocol: as §2, §3, §4

[3] = % phos on S159+T163, CDK1 + kinase panel reactions
[4] = % phos on S159+T163, single kinase reactions

Percent phosphorylation S121, AVE (Mcl-1 S121; CDK1 + kinase panel reactions) [%]	Percent phosphorylation S121, INJ1 (Mcl-1 S121; CDK1 + kinase panel reactions) [%]	Percent phosphorylation S121, INJ2 (Mcl-1 S121; CDK1 + kinase panel reactions) [%]	Percent phosphorylation S121, AVE (Mcl-1 S121; single kinase reactions) [%]	Percent phosphorylation S121, INJ1 (Mcl-1 S121; single kinase reactions) [%]	Percent phosphorylation S121, INJ2 (Mcl-1 S121; single kinase reactions) [%]	Percent phosphorylation S159/T163, AVE (Mcl-1 S159/T163; [3]) [%]	Percent phosphorylation S159/T163, INJ1 (Mcl-1 S159/T163; [3]) [%]	Percent phosphorylation S159/T163, INJ2 (Mcl-1 S159/T163; [3]) [%]	Percent phosphorylation S159/T163, AVE (Mcl-1 S159/T163; [4]) [%]	Percent phosphorylation S159/T163, INJ1 (Mcl-1 S159/T163; [4]) [%]	Percent phosphorylation S159/T163, INJ2 (Mcl-1 S159/T163; [4]) [%]	Percent phosphorylation T163, AVE (Mcl-1 T163) [%]	Percent phosphorylation T163, INJ1 (Mcl-1 T163) [%]	Percent phosphorylation T163, INJ2 (Mcl-1 T163) [%]	Percent phosphorylation T92, AVE (Mcl-1 T92) [%]	Percent phosphorylation T92, INJ1 (Mcl-1 T92) [%]	Percent phosphorylation T92, INJ2 (Mcl-1 T92) [%]	Molecule	further results
																		Nc1[nH]nc2nnc(-c3c(-c4ccccc4)nn4ccccc34)cc12 [FR180204]	Mcl-1 degradation in mitotic arrest (Mcl-1; HeLa released into paclitaxel, CGP74514A 2 μM, FR180204 2 μM, SP600125 25 μM, SB203580 2 μM added on entry into mitotic arrest): but not ERK, attenuate Mcl-1 degradation
																		CC(C)C[C@@H](C=O)NC(=O)[C@H](CC(C)C)NC(=O)[C@H](CC(C)C)NC(=O)OCc1ccccc1 [MG132] (Cbz-Leu-Leu-Leu-aldehyde)	Mcl-1 degradation in mitotic arrest (Mcl-1; HeLa, HCT116 cells, MG132 added as cells entered mitotic arrest): blocked Mcl-1 degradation
																		COC(=O)Nc1nc2ccc(C(=O)c3cccs3)cc2[nH]1 [nocodazole]	Mcl-1 protein level in mitotic arrest (Mcl-1; synchronized cells (HeLa) released into the agent): declined markedly; killing (cell viability) ([1]; BAX−/−/BAK−/− MEFs): resistant; killing (cell viability) ([1]; wild-type MEFs): significantly more sensitive
																		CC[C@]1(O)C[C@H]2CN(CCc3c([nH]c4ccccc34)[C@@](C(=O)OC)(c3cc4c(cc3OC)N(C=O)[C@H]3[C@@](O)(C(=O)OC)[C@H](OC(C)=O)[C@]5(CC)C=CCN6CC[C@]43[C@@H]65)C2)C1 [vincristine, 22-Oxovincaleukoblastine]	sensitivity to drug-induced death upon reducing Mcl-1 protein ([2]; FBW7-null HCT116 cells, doxycycline-inducible Mcl-1 shRNA): restored their sensitivity; resistance to drug-induced cell death ([2]; FBW7-null cell lines relative to wild-type cells): more resistant; drug-induced apoptosis upon decreasing Mcl-1 protein levels (HCT116 cells; FBW7-null cells with Mcl-1 shRNA vs control shRNA): enhanced; exit from drug-induced mitotic arrest (mitotic slippage) (HCT116 cells; FBW7-null vs FBW7-wild-type cells): more readily; sensitivity to killing ([1]; BCL-X−/− MEFs vs wild-type): not BCL-X enhances sensitivity; sensitivity to killing ([1]; MCL-1−/− MEFs vs wild-type): enhanced sensitivity
21.48	20.17	22.78	10.28	10.20	10.36	7.70	8.30	7.09	3.80	5.61	1.99	0.00	0.00	0.00	0.10	0.09	0.10	CSNK2: purified recombinant kinase purchased from Invitrogen	Percent phosphorylation S159, AVE (Mcl-1 S159; CDK1 + kinase panel reactions): 17.13%; Percent phosphorylation S159, INJ1 (Mcl-1 S159; CDK1 + kinase panel reactions): 16.35%; Percent phosphorylation S159, INJ2 (Mcl-1 S159; CDK1 + kinase panel reactions): 17.90%; Percent phosphorylation S159, AVE (Mcl-1 S159; single kinase reactions): 39.13%; Percent phosphorylation S159, INJ1 (Mcl-1 S159; single kinase reactions): 40.30%; Percent phosphorylation S159, INJ2 (Mcl-1 S159; single kinase reactions): 37.95%
11.82	11.75	11.89	6.02	6.46	5.57	0.61	0.73	0.49	4.82	5.41	4.22	48.52	48.92	48.11	2.02	2.30	1.74	MAPK9: purified recombinant kinase purchased from Invitrogen	
20.58	21.26	19.90	5.26	7.22	3.29	2.14	1.84	2.43	4.35	1.12	7.57	76.20	79.44	72.96	8.94	9.67	8.20	MAPK14: purified recombinant kinase purchased from Invitrogen	
